Measurements taken from US20170157012A1, “A Use of Isosorbide Monooleate” (BASF SE, priority 2014, published 2017).

Columns and labels:
[1] = In-vivo deposition on human skin after rinse-off (GC of extract)
Experimental: (§1) For measuring the deposition of isosorbide monooleate on a substrate a formulation containing isosorbide monooleate was applied to this substrate. Then, the treated area was rinsed with a defined amount of water and extracted with an organic solvent in order to determine the amount of isosorbide monooleate that remained on the surface after the rinse cycle. The extract was analyzed by gas chromatography (GC) and the amount of isosorbide monooleate deposited on the surface was calculated. The measurements were carried out as described in the experimental section of WO 2013/007473.
(§2) As substrate the human skin (forearm) of probands (in-vivo deposition) as well as a skin substitute (collagen layer) (in-vitro deposition) was used. The rinse-cycle (dilution with water) imitated the process of having a shower.
(§3) The following formulations were used for the deposition measurements (in-vitro as well as in-vivo).

[2] = In-vitro deposition on skin substitute after rinse-off (GC of extract); settings: for In-vitro deposition of Isosorbide monooleate on the skin substitute per area: after rinse with water
Experimental: as §1, §2, §3

In-vivo Deposition of isosorbide monooleate on the skin per area ([1]; 1 % by weight isosorbide monooleate in the formulation, human forearm skin, after rinse-off): 0.7 μg/cm^2 | In-vitro deposition of Isosorbide monooleate on the skin substitute per area ([2]; 0.5 % by weight isosorbide monooleate in the formulation): 3.7 μg/cm^2 | In-vitro deposition of Isosorbide monooleate on the skin substitute per area ([2]; 1 % by weight isosorbide monooleate in the formulation): 7.3 μg/cm^2 | In-vitro deposition of Isosorbide monooleate on the skin substitute per area ([2]; 1.5 % by weight isosorbide monooleate in the formulation): 8.6 μg/cm^2 | In-vitro deposition of Isosorbide monooleate on the skin substitute per area ([2]; 2 % by weight isosorbide monooleate in the formulation): 15.8 μg/cm^2
Substance: isosorbide monooleate
Remaining on the skin after rinse-off (in words) ([1]; formulation with 1% by weight isosorbide monooleate): remained in small amounts on the skin after rinse-off | Concentration dependency of deposition on the skin/skin substitute ([2]; formulations with 0.5 to 2 % by weight isosorbide monooleate): The higher the amount of isosorbide monooleate in the formulation the higher the deposition rate
